Patent US10000507B2, “Furo- and thieno-pyridine carboxamide compounds useful as pim kinase inhibitors” (Incyte Corporation, priority 2013, dated 2018)

What was measured:
Assay type in all cases: biochemical
Pim-1 = Pim-1 (Homo sapiens (Human), UniProt P11309); experiment: Pim-1 kinase assay; conditions: 1 mM ATP, biotin-labeled BAD peptide substrate; read-out: Pim1 IC50
Experimental: (§1) Pim-1 and Pim-3 kinase assays-20 μL reactions were run in white 384 well polystyrene plates dotted with 0.8 μL compound/DMSO in the assay buffer (50 mM Tris, pH 7.5, 0.01% Tween-20, 5 mM MgCl2, 0.01% BSA, 5 mM DTT), containing […] Biotin-labeled BAD peptide substrate (AnaSpec 62269), 1 mM ATP, and 2.5 pM (Pim-1, Invitrogen PV3503) or 1.25 pM (Pim-3, Millipore 14-738) enzyme for 1 h at 25° C. Reactions were stopped by addition of 10 μL STOP Buffer (150 mM Tris, pH=7.5, 150 mM NaCl, 75 mM EDTA, 0.01% Tween-20, 0.3% BSA) supplemented with Phospho-Bad (Ser112) Antibody (Cell Signaling 9291) diluted 666-fold, and Streptavidin donor beads (PerkinElmer 6760002) along with Protein-A acceptor beads (PerkinElmer 6760137) at 15 μg/mL each. Supplementation of the STOP buffer with beads and stopping the reactions were done under reduced light. Prior to the stopping reactions STOP buffer with beads was pre-incubated for 1 h in the dark at room temperature. After stopping the reactions, plates were incubated for 1 h in the dark at room temperature before reading on a PHERAstar FS plate reader (BMG Labtech) under reduced light.

Pim-2 = Pim-2 (Homo sapiens (Human), UniProt Q9P1W9); experiment: Pim-2 kinase assay; conditions: 1 mM ATP, fluorescein-labeled CREBtide peptide substrate; read-out: Pim2 IC50
Sequence of Pim-2 (Q9P1W9 whole entry): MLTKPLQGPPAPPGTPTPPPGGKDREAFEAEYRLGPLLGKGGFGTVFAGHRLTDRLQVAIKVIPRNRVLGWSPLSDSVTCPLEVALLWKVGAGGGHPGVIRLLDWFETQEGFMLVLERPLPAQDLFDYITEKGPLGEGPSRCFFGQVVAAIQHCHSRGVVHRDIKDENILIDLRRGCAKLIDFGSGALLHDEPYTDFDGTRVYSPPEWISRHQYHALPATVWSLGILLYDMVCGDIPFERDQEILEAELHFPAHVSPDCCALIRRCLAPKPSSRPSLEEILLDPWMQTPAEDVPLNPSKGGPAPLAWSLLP
Experimental: Pim-2 kinase assay-20 μL reactions were run in white 384 well polystyrene plates dotted with 0.8 μL compound/DMSO in the assay buffer (50 mM Tris, pH 7.5, 0.01% Tween-20, 5 mM MgCl2, 0.01% BSA, 5 mM DTT), containing 0.05 μm Fluorescein-labeled CREBtide peptide substrate (Invitrogen PV3508), 1 mM ATP, and 1 nM enzyme (Invitrogen PV3649) for 2 h at 25° C. Reactions were stopped by addition of 10 μL TR-FRET Dilution Buffer (Invitrogen PV3574) with 30 mM EDTA and 1.5 nM LanthaScreen Tb-CREB pSer133 antibody (Invitrogen PV3566). After 30 min. incubation at room temperature, plates were read on a PHERAstar FS plate reader (BMG Labtech).

Pim-3 = Pim-3 (Homo sapiens (Human), UniProt Q86V86); experiment: Pim-3 kinase assay; conditions: 1 mM ATP, biotin-labeled BAD peptide substrate; read-out: Pim3 IC50
Experimental: as §1

Sequence of Pim-1 (P11309 whole entry): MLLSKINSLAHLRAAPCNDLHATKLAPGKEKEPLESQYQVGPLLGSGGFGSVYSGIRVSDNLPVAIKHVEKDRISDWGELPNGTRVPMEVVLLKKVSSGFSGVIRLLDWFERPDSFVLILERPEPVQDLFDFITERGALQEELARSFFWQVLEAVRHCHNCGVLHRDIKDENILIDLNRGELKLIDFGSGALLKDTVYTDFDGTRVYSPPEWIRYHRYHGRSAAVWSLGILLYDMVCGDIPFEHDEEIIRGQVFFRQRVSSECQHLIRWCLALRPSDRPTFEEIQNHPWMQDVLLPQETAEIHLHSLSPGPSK

| SMILES | IC50 (Pim-1) | IC50 (Pim-2) | IC50 (Pim-3) |
| --- | --- | --- | --- |
| Nc1oc2cc(Br)cnc2c1C(=O)Nc1cnccc1N1CCC[C@H](N)C1 [Example 54, 2-amino-N-{4-[(3S)-3-aminopiperidin-1-yl]pyridin-3-yl}-6-bromo-furo[3,2-b]pyridine-3-carboxamide] | ≤ 10 nM | 10 to 100 nM | ≤ 10 nM |
| Cc1ccnc2c(C(=O)Nc3cnccc3N3CCC[C@H](N)C3)c(N)oc12 [Example 55, 2-amino-N-{4-[(3S)-3-aminopiperidin-1-yl]pyridin-3-yl}-7-methyl-furo[3,2-b]pyridine-3-carboxamide] | 10 to 100 nM | > 2000 nM | ≤ 10 nM |
| Cn1ncc(NC(=O)c2c(N)oc3cc(C(F)(F)F)cnc23)c1N1CCCC(N)CC1 (stereo not drawn) [Example 56, 2-amino-N-[5-(4-aminoazepan-1-yl)-1-methyl-1H-pyrazol-4-yl]-6-trifluoromethyl-furo[3,2-b]pyridine-3-carboxamide] | ≤ 10 nM | 10 to 100 nM | ≤ 10 nM |
| Cn1ncc(NC(=O)c2c(N)oc3cc(Cl)cnc23)c1N1CCCC(N)CC1 (stereo not drawn) [Example 57, 2-Amino-N-[5-(4-aminoazepan-1-yl)-1-methyl-1H-pyrazol-4-yl]-6-chlorofuro[3,2-b]pyridine-3-carboxamide] | ≤ 10 nM | 100 to 1000 nM | ≤ 10 nM |
| Cn1ncc(NC(=O)c2c(N)oc3c(Cl)ccnc23)c1N1CCCC(N)CC1 (stereo not drawn) [Example 58, 2-amino-N-[5-(4-aminoazepan-1-yl)-1-methyl-1H-pyrazol-4-yl]-7-chlorofuro[3,2-b]pyridine-3-carboxamide] | ≤ 10 nM | 100 to 1000 nM | ≤ 10 nM |
| CCCc1cnc2c(C(=O)Nc3cnn(C)c3N3CCCC(N)CC3)c(N)oc2c1 (stereo not drawn) [Example 59, 2-amino-N-[5-(4-aminoazepan-1-yl)-1-methyl-1H-pyrazol-4-yl]-6-propylfuro[3,2-b]pyridine-3-carboxamide] | ≤ 10 nM | 10 to 100 nM | ≤ 10 nM |
| Nc1oc2cccnc2c1C(=O)Nc1cnccc1N1C[C@@H](N)C[C@@H](C(F)(F)F)C1 [Example 60, 2-amino-N-{4-[(3S,5R)-3-amino-5-(trifluoromethyl)piperidin-1-yl]pyridin-3-yl}-furo[3,2-b]pyridine-3-carboxamide] | ≤ 10 nM | 10 to 100 nM | ≤ 10 nM |
| Nc1oc2cc(C(F)(F)F)cnc2c1C(=O)Nc1cnccc1N1C[C@@H](N)C[C@@H](C(F)(F)F)C1 [Example 61, 2-amino-N-{4-[(3S,5R)-3-amino-5-(trifluoromethyl)piperidin-1-yl]pyridin-3-yl}-6-trifluoromethyl-furo[3,2-b]pyridine-3-carboxamide] | ≤ 10 nM | 10 to 100 nM | ≤ 10 nM |
| Nc1oc2cc(Cl)cnc2c1C(=O)Nc1cnccc1N1C[C@@H](N)C[C@@H](C(F)(F)F)C1 [Example 62, 2-amino-N-{4-[(3S,5R)-3-amino-5-(trifluoromethyl)piperidin-1-yl]pyridin-3-yl}-6-chlorofuro[3,2-b]pyridine-3-carboxamide] | ≤ 10 nM | 10 to 100 nM | ≤ 10 nM |
| Nc1oc2cc(F)cnc2c1C(=O)Nc1cnccc1N1C[C@@H](N)C[C@@H](C(F)(F)F)C1 [Example 63, 2-amino-N-{4-[(3S,5R)-3-amino-5-(trifluoromethyl)piperidin-1-yl]pyridin-3-yl}-6-fluorofuro[3,2-b]pyridine-3-carboxamide] | ≤ 10 nM | 10 to 100 nM | ≤ 10 nM |
| Cc1cncc(NC(=O)c2c(N)oc3cccnc23)c1N1CC[C@H](N)C1 [Example 64, 2-amino-N-{4-[(3S)-3-aminopyrrolidin-1-yl]-5-methylpyridin-3-yl}furo[3,2-b]pyridine-3-carboxamide] | ≤ 10 nM | 100 to 2000 nM | ≤ 10 nM |
| C[C@@H]1C[C@H](N)CN(c2ccncc2NC(=O)c2c(N)oc3cccnc23)C1 [Example 65, 2-amino-N-{4-[(3S,5R)-3-amino-5-methyl-piperidin-1-yl]pyridin-3-yl}-furo[3,2-b]pyridine-3-carboxamide] | ≤ 10 nM | 10 to 100 nM | ≤ 10 nM |
| C[C@H]1CN(c2ccncc2NC(=O)c2c(N)oc3cc(Cl)cnc23)C[C@@H](N)[C@@H]1O [Example 66, 2-amino-N-{4-[(3R,4R,5S)-3-amino-4-hydroxy-5-methylpiperidin-1-yl]pyridin-3-yl}-6-chlorofuro[3,2-b]pyridine-3-carboxamide] | ≤ 10 nM | 10 to 100 nM | ≤ 10 nM |
| CCCc1cnc2c(C(=O)Nc3cnccc3N3C[C@@H](N)[C@H](O)[C@@H](C)C3)c(N)oc2c1 [Example 67, 2-Amino-N-{4-[(3R,4R,5S)-3-amino-4-hydroxy-5-methylpiperidin-1-yl]pyridin-3-yl}-6-propylfuro[3,2-b]pyridine-3-carboxamide] | ≤ 10 nM | ≤ 10 nM | ≤ 10 nM |
| C[C@H]1CN(c2ccncc2NC(=O)c2c(N)oc3cc(C(F)(F)F)cnc23)C[C@@H](N)[C@@H]1O [Example 68, 2-Amino-N-{4-[(3R,4R,5S)-3-amino-4-hydroxy-5-methylpiperidin-1-yl]pyridin-3-yl}-6-(trifluoromethyl)furo[3,2-b]pyridine-3-carboxamide] | ≤ 10 nM | 10 to 100 nM | ≤ 10 nM |
| CCCc1cnc2c(C(=O)Nc3cnccc3N3C[C@@H](N)C[C@@H](C(F)(F)F)C3)c(N)oc2c1 [Example 69, 2-Amino-N-{4-[(3S,5R)-3-amino-5-(trifluoromethyl)piperidin-1-yl]pyridin-3-yl}-6-propylfuro[3,2-b]pyridine-3-carboxamide] | ≤ 10 nM | ≤ 10 nM | ≤ 10 nM |
| CCCc1cnc2c(C(=O)Nc3cnccc3N3C[C@H](C)C[C@H](N)C3)c(N)oc2c1 [Example 70, 2-Amino-N-{4-[(3S,5R)-3-amino-5-methyl-piperidin-1-yl]pyridin-3-yl}-6-propylfuro[3,2-b]pyridine-3-carboxamide] | ≤ 10 nM | 10 to 100 nM | ≤ 10 nM |
| C[C@@H]1C[C@H](N)CN(c2ccncc2NC(=O)c2c(N)oc3cc(F)cnc23)C1 [Example 71, 2-Amino-N-{4-[(3S,5R)-3-amino-5-methyl-piperidin-1-yl]pyridin-3-yl}-6-fluorofuro[3,2-b]pyridine-3-carboxamide] | ≤ 10 nM | 10 to 100 nM | ≤ 10 nM |
| C[C@@H]1C[C@H](N)CN(c2ccncc2NC(=O)c2c(N)oc3cc(Cl)cnc23)C1 [Example 72, 2-Amino-N-{4-[(3S,5R)-3-amino-5-methyl-piperidin-1-yl]pyridin-3-yl}-6-chlorofuro[3,2-b]pyridine-3-carboxamide] | ≤ 10 nM | 10 to 100 nM | ≤ 10 nM |
| C[C@@H]1C[C@H](N)CN(c2ccncc2NC(=O)c2c(N)oc3cc(C(F)(F)F)cnc23)C1 [Example 73, 2-Amino-N-{4-[(3S,5R)-3-amino-5-methyl-piperidin-1-yl]pyridin-3-yl}-6-(trifluoromethyl)-furo[3,2-b]pyridine-3-carboxamide] | ≤ 10 nM | 10 to 100 nM | ≤ 10 nM |
| C[C@H]1CN(c2ccncc2NC(=O)c2c(N)oc3cccnc23)C[C@@H](N)[C@@H]1O [Example 74, 2-Amino-N-{4-[(3R,4R,5S)-3-amino-4-hydroxy-5-methylpiperidin-1-yl]pyridin-3-yl}-furo[3,2-b]pyridine-3-carboxamide] | ≤ 10 nM | 10 to 100 nM | ≤ 10 nM |
| CC(C)c1cnc2c(C(=O)Nc3cnccc3N3C[C@@H](N)[C@H](O)[C@@H](C)C3)c(N)oc2c1 [Example 75, 2-Amino-N-{4-[(3R,4R,5S)-3-amino-4-hydroxy-5-methylpiperidin-1-yl]pyridin-3-yl}-6-isopropylfuro[3,2-b]pyridine-3-carboxamide] | ≤ 10 nM | 10 to 100 nM | ≤ 10 nM |
| Cc1cncc(NC(=O)c2c(N)oc3cccnc23)c1N1C[C@@H](N)[C@H](O)[C@@H](C)C1 [Example 76, 2-Amino-N-{5-methyl-4-[(3R,4R,5S)-3-amino-4-hydroxy-5-methylpiperidin-1-yl]pyridin-3-yl}-furo[3,2-b]pyridine-3-carboxamide] | ≤ 10 nM | 100 to 1000 nM | ≤ 10 nM |
